Experimental data published in PMC3935314 (Biochemical pharmacology, 2013).

Target: GPR55 (Homo sapiens, UniProt Q9Y2T6)
Assay: saturable fluorescent ligand uptake in live cells, reduced by GPR55 siRNA
Assay type: cell-based

Sequence of GPR55 (Q9Y2T6 whole entry): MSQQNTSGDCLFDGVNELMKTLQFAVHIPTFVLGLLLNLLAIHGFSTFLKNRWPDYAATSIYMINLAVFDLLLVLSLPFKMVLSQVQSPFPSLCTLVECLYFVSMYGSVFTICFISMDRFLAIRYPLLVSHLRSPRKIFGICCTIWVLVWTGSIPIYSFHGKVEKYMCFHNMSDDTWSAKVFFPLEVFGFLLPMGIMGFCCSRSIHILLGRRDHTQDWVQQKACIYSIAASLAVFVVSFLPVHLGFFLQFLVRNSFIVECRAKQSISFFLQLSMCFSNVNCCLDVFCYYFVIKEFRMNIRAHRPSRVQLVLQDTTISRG

Tocrifluor 1117 [T1117] showed an EC50 of about 8 nM.
